The target of assay [1] is T1, PRMT5 (Homo sapiens, UniProt O14744).
T1 construct: purchased Viva (custom protein)
As to the kind of experiment: PRMT5 IC50 assay in the presence of SAM as cofactor. The class given is biochemical. The method in brief: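 Potency against PRMT5 is compared across cofactor states, where IC50 equals Ki×1.5 with SAM present and Ki×13.5 with MTA present.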

The target of assay [2] is T1, PRMT5. As to the kind of experiment: PRMT5 IC50 assay with no cofactor. The class given is biochemical. The method, boiled down: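 Cofactor-free, SAM and MTA formats; IC50 μM; Ki = IC50/1.5 for SAM, IC50/13.5 for MTA.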
A further assay concerns HAP1 MTAP-intact. Briefly: SDMA in-cell western assay, HAP1 MTAP-intact cell line. The format is cell-based. The following applies: Homo sapiens. The method in brief: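 Cells from two matched HAP1 lines, MTAP-null and MTAP-expressing at endogenous levels, are treated with compound. SDMA is then quantified by in-cell western and an IC50 is calculated for each line.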
Assay [3] deals with T1, PRMT5. As to the kind of experiment: PRMT5 IC50 assay in the presence of MTA as cofactor. The format is biochemical. The following applies: for IC50: PRMT5, MTA as cofactor. The method, boiled down: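 Ki conversion: SAM arm, Ki=IC50/1.5; MTA arm, Ki=IC50/13.5. No-cofactor arm reported as IC50 only. Selectivity expressed as Ki(SAM)/Ki(MTA).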
Another assay concerns HAP1 MTAP-deleted. As to the kind of experiment: SDMA in-cell western assay, HAP1 MTAP-deleted cell line. The format is cell-based. The following applies: for IC50: Homo sapiens, HAP1 MTAP-deleted cell line; for MTAP Intact/Deleted Ratio: IC50 ratio HAP1 MTAP-intact / HAP1 MTAP-deleted. The method in brief:
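MTAP-null HAP1 cells, the deleted member of an isogenic pair with endogenously MTAP-expressing HAP1, are treated with compound. SDMA is then quantified by in-cell western and an IC50 is calculated.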

Setting [4] is: ratio between the Ki in the presence of SAM and the Ki in the presence of MTA.
Setting [5] is: ratio between Ki in the presence of SAM and Ki in the presence of MTA.

T1 sequence (O14744 whole entry): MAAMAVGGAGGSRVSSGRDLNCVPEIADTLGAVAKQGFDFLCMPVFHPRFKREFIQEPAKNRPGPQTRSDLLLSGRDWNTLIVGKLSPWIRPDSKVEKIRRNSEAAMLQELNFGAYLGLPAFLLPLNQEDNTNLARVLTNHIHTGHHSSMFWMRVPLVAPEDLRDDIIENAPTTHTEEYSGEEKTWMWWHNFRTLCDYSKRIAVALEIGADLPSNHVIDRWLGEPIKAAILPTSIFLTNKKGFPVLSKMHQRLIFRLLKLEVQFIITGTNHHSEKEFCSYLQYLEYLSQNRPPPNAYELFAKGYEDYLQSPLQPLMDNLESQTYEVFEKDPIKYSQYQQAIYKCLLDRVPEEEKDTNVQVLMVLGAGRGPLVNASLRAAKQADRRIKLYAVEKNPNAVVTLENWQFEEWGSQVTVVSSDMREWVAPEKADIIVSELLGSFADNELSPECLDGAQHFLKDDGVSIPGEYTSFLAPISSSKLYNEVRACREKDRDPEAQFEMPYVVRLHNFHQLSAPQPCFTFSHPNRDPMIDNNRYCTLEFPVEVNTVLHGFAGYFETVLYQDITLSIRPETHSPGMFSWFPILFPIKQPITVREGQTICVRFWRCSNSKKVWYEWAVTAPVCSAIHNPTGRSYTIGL
T1 sequence (Q9BQA1 whole entry partner): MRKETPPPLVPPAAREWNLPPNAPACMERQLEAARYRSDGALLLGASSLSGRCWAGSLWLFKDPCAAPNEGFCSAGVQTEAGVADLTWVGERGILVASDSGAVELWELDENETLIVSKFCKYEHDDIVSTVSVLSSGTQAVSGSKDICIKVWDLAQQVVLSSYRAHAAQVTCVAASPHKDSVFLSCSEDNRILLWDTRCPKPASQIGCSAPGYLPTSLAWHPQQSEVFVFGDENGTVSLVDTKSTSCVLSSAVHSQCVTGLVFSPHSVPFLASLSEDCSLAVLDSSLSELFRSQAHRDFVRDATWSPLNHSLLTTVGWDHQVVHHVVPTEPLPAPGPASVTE

In general, IC50 refers to the point on the concentration scale where inhibition reaches its midpoint. With `CS(=O)(=O)N1CCC(Nc2cc(C(=O)NC[C@H](O)CN3CCc4cc(OCc5cnco5)ccc4C3)ccn2)CC1` [Compound 430, N-[(2S)-2-hydroxy-3-[6-(oxazol-5-ylmethoxy)-3,4-dihydro-1H-isoquinolin-2-yl]propyl]-2-[(1-methylsulfonyl-4-piperidyl)amino]pyridine-4-carboxamide], the IC50 on PRMT5 [1] was 50 to 500 nM; against PRMT5 [2] it was 500 to 5000 nM; with HAP1 MTAP-intact it was not below 10000 nM; on PRMT5 [3], 50 to 500 nM; in the assay on HAP1 MTAP-deleted it was 1000 to 10000 nM. For the same compound, the “SAM/MTA Ratio” value on PRMT5 [3] (setting [4]) is “A (a Ki ratio greater than or equal to 10 fold between the Ki in the presence of SAM and the Ki in the presence of MTA)”. Moreover, the “MTAP Intact/Deleted Ratio” value with HAP1 MTAP-deleted is “C* (an IC50 ratio of less than 3 fold between the IC50 in the HAP1 MTAP-intact cell line and the HAP1 MTAP-deleted cell line)”.

Consider `O=C(NC[C@H](O)CN1CCc2cc(OCc3cnco3)ccc2C1)c1cc(NC2CCC2)nc(N2CCOCC2)c1` [Compound 292, (S)-2-(cyclobutylamino)-N-(2-hydroxy-3-(6-(oxazol-5-ylmethoxy)-3,4-dihydroisoquinolin-2(1H)-yl)propyl)-6-morpholinoisonicotinamide], for which the IC50 is 50 to 500 nM on PRMT5 [1]; 500 to 5000 nM at PRMT5 [2] (read-out: No Co-factor IC50); not below 10000 nM with HAP1 MTAP-intact; 50 to 500 nM at PRMT5 [3]; 1000 to 10000 nM with HAP1 MTAP-deleted. On PRMT5 [3] (setting [5]), the “SAM/MTA Ratio” value was “A (a Ki ratio greater than or equal to 10 fold between the Ki in the presence of SAM and the Ki in the presence of MTA)”. Moreover, in the assay on HAP1 MTAP-deleted, the “MTAP Intact/Deleted Ratio” value was “C* (an IC50 ratio of less than 3 fold between the IC50 in the HAP1 MTAP-intact cell line and the HAP1 MTAP-deleted cell line)”.

`Cc1ncoc1COc1ccc2c(c1)CCN(C[C@@H](O)CNC(=O)c1ccc3c(c1)CCN(C(=O)c1ccc(Br)cc1)C3)C2` [Compound 493]: the IC50 on PRMT5 [1] was 50 to 500 nM; at PRMT5 [2] it was 500 to 5000 nM; in the assay with HAP1 MTAP-intact it was 1000 to 10000 nM; at PRMT5 [3] it was less than 50 nM; in the assay with HAP1 MTAP-deleted, less than 1000 nM. For the same compound, the “SAM/MTA Ratio” value at PRMT5 [3] (setting [4]) is “A (a Ki ratio greater than or equal to 10 fold between the Ki in the presence of SAM and the Ki in the presence of MTA)”. Further, the “MTAP Intact/Deleted Ratio” value in the assay on HAP1 MTAP-deleted was “B* (an IC50 ratio greater than or equal to 3 fold but lower than 10 fold between the IC50 in the HAP1 MTAP-intact cell line and the HAP1 MTAP-deleted cell line)”.

As to `Cc1c(OCc2cnco2)ccc2c1CCN(C[C@@H](O)CNC(=O)c1cc(NC3CCCC3)ncn1)C2` [Compound 393, 6-(cyclopentylamino)-N-[(2S)-2-hydroxy-3-{5-methyl-6-[(1,3-oxazol-5-yl)methoxy]-1,2,3,4-tetrahydroisoquinolin-2-yl}propyl]pyrimidine-4-carboxamide], the IC50 is 500 to 5000 nM on PRMT5 [1]; not below 5000 nM at PRMT5 [2] (read-out: No Co-factor IC50); not below 10000 nM in the assay with HAP1 MTAP-intact; 500 to 5000 nM at PRMT5 [3]; not below 10000 nM in the assay on HAP1 MTAP-deleted. Also, the “SAM/MTA Ratio” value at PRMT5 [3] (setting [5]) is “A (a Ki ratio greater than or equal to 10 fold between the Ki in the presence of SAM and the Ki in the presence of MTA)”. In addition, in the assay with HAP1 MTAP-deleted, the “MTAP Intact/Deleted Ratio” value is “C* (an IC50 ratio of less than 3 fold between the IC50 in the HAP1 MTAP-intact cell line and the HAP1 MTAP-deleted cell line)”.

Turning to `CCCN(C)c1nc(NC2COC2)cc(C(=O)NC[C@H](O)CN2CCc3c(ccc(OCc4ocnc4C)c3C)C2)n1` [Compound 465, N-[(2K)-2-hydroxy-3-{5-methyl-6-[(4-methyl-1,3-oxazol-5-yl)methoxy]-1,2,3,4-tetrahydroisoquinolin-2-yl}propyl]-2-[methyl(propyl)amino]-6-[(oxetan-3-yl)amino]pyrimidine-4-carboxamide], the IC50 was 50 to 500 nM on PRMT5 [1]; not below 5000 nM against PRMT5 [2]; not below 10000 nM with HAP1 MTAP-intact; 50 to 500 nM on PRMT5 [3]; 1000 to 10000 nM in the assay on HAP1 MTAP-deleted. For the same compound, at PRMT5 [3] (setting [4]), the “SAM/MTA Ratio” value was “A (a Ki ratio greater than or equal to 10 fold between the Ki in the presence of SAM and the Ki in the presence of MTA)”. The “MTAP Intact/Deleted Ratio” value with HAP1 MTAP-deleted was “B* (an IC50 ratio greater than or equal to 3 fold but lower than 10 fold between the IC50 in the HAP1 MTAP-intact cell line and the HAP1 MTAP-deleted cell line)”.

In the case of `Cc1ncoc1COc1ccc2c(c1)CCN(C[C@@H](O)CNC(=O)c1cc(NC3COC3)nc(N3CCN(C(C)C)CC3)n1)C2` [Compound 492, N-[(2S)-2-hydroxy-3-{6-[(4-methyl-1,3-oxazol-5-yl)methoxy]-1,2,3,4-tetrahydroisoquinolin-2-yl}propyl]-6-[(oxetan-3-yl)amino]-2-[4-(propan-2-yl)piperazin-1-yl]pyrimidine-4-carboxamide], the IC50 on PRMT5 [1] is 50 to 500 nM; on PRMT5 [2], not below 5000 nM; with HAP1 MTAP-intact, 1000 to 10000 nM; at PRMT5 [3], 50 to 500 nM; with HAP1 MTAP-deleted, 1000 to 10000 nM. In addition, the “SAM/MTA Ratio” value on PRMT5 [3] (setting [4]) was “A (a Ki ratio greater than or equal to 10 fold between the Ki in the presence of SAM and the Ki in the presence of MTA)”. Further, the “MTAP Intact/Deleted Ratio” value in the assay on HAP1 MTAP-deleted is “C* (an IC50 ratio of less than 3 fold between the IC50 in the HAP1 MTAP-intact cell line and the HAP1 MTAP-deleted cell line)”.

On to `Cc1c(OCc2cnco2)ccc2c1CCN(C[C@@H](O)CNC(=O)c1cc(NC3CCN(C(=O)C(C)(C)C)CC3)ncn1)C2` [Compound 523, 6-{[1-(2,2-dimethylpropanoyl)piperidin-4-yl]amino}-N-[(2S)-2-hydroxy-3-{5-methyl-6-[(1,3-oxazol-5-yl)methoxy]-1,2,3,4-tetrahydroisoquinolin-2-yl}propyl]pyrimidine-4-carboxamide], for which the IC50 on PRMT5 [1] was 50 to 500 nM; at PRMT5 [2], not below 5000 nM; in the assay with HAP1 MTAP-intact it was not below 10000 nM; at PRMT5 [3], 50 to 500 nM; with HAP1 MTAP-deleted, not below 10000 nM. Also, the “SAM/MTA Ratio” value at PRMT5 [3] (setting [4]) is “A (a Ki ratio greater than or equal to 10 fold between the Ki in the presence of SAM and the Ki in the presence of MTA)”. In addition, in the assay with HAP1 MTAP-deleted, the “MTAP Intact/Deleted Ratio” value is “C* (an IC50 ratio of less than 3 fold between the IC50 in the HAP1 MTAP-intact cell line and the HAP1 MTAP-deleted cell line)”.

In the case of `Cc1ncoc1COc1ccc2c(c1)CCN(C[C@@H](O)CNC(=O)c1cc(NC3CCCC3)ncn1)C2` [Compound 333, 6-(cyclopentylamino)-N-[(2S)-2-hydroxy-3-{6-[(4-methyl-1,3-oxazol-5-yl)methoxy]-1,2,3,4-tetrahydroisoquinolin-2-yl}propyl]pyrimidine-4-carboxamide], the IC50 on PRMT5 [1] was 50 to 500 nM; at PRMT5 [2] (read-out: No Co-factor IC50), not below 5000 nM; in the assay on HAP1 MTAP-intact, less than 1000 nM; on PRMT5 [3], 50 to 500 nM; in the assay on HAP1 MTAP-deleted, less than 1000 nM. The “SAM/MTA Ratio” value at PRMT5 [3] (setting [5]) is “A (a Ki ratio greater than or equal to 10 fold between the Ki in the presence of SAM and the Ki in the presence of MTA)”. In addition, the “MTAP Intact/Deleted Ratio” value in the assay on HAP1 MTAP-deleted is “C* (an IC50 ratio of less than 3 fold between the IC50 in the HAP1 MTAP-intact cell line and the HAP1 MTAP-deleted cell line)”.

In the case of `CC(=O)N1CCC(Nc2cc(C(=O)NC[C@H](O)CN3CCc4c(ccc(OCc5ocnc5C)c4C)C3)cc(N3CCCCC3)n2)CC1` [Compound 595], the IC50 at PRMT5 [1] is 50 to 500 nM; against PRMT5 [2] it was 500 to 5000 nM; with HAP1 MTAP-intact, 1000 to 10000 nM; at PRMT5 [3], less than 50 nM; in the assay on HAP1 MTAP-deleted, less than 1000 nM. At PRMT5 [3] (setting [4]), the “SAM/MTA Ratio” value was “A (a Ki ratio greater than or equal to 10 fold between the Ki in the presence of SAM and the Ki in the presence of MTA)”. In the assay on HAP1 MTAP-deleted, the “MTAP Intact/Deleted Ratio” value is “A* (an IC50 ratio greater than or equal to 10 fold between the IC50 in the HAP1 MTAP-intact cell line and the HAP1 MTAP-deleted cell line)”.

For the origin of these results see US11986471B2, “Compounds and methods of use” (Tango Therapeutics, Inc., priority 2018, dated 2024).
